Test results from the NIST ThermoML archive (doi:10.1021/je500867u).
± gives the expanded uncertainty stated by the source.

Details: Crystal; visual observation

Normal melting temperature: 288.0 ± 0.5 °C
Compound: Nc1ccc(S(=O)(=O)O)cc1 [4-aminobenzenesulfonic acid]
